Results reported in patent publication US12643871B2, “Aryl formamide compound containing chiral sulfur oxide or salt thereof, preparation method, herbicidal composition and use thereof” (Qingdao Kingagroot Chemical Compound Co., Ltd., priority 2019, dated 2026).

Tests used:
[1] = system: Echinochloa crusgali; experiment: Weeding effect in post-emergence stage; type: in vivo; details: 250 g/ha; 2 leaf stage; 15 days after application; fresh weight control rate
Excerpt: (§1) The activity level criteria for harmful plant damage (i.e., growth control rate) are as follows: • Level 5: growth control rate is above 85%; • Level 4: growth control rate is greater than or equal to 60% and less than 85%; • Level 3: growth control rate is greater than or equal to 40% and less than 60%; • Level 2: growth control rate is greater than or equal to 20% and less than 40%; • Level 1: growth control rate is greater than or equal to 5% and less than 20%; • Level 0: growth control rate is less than 5%.
(§2) The above growth control rates are fresh weight control rates.
(§3) Experiment on weeding effect in post-emergence stage: monocotyledonous and dicotyledonous weed seeds (Descurainia sophia, Capsella bursa-pastoris, Galium aparine, Stellaria media, Lithospermum arvense, Rorippa indica, Alopecurus aequalis, Beckmannia syzigachne, Sclerochloa dura, Phleum paniculatum, Bromus japonicus, Aegilops tauschii, Phalaris arundinacea, Amaranthus retroflexus, Chenopodiaceae, Commelina communis, Sonchus arvensis, convolvulus arvensis, Cirsium setosum, Solanum nigrum, Acalypha australis, Digitaria sanguinalis, Echinochloa crusgalli, Setaria viridis, Setaria glauca, Leptochloa chinensis, Monochoria vaginalis, Sagittaria trifolia, Scirpus juncoides, Cyperus rotundus, Cyperus iria, Cyperus difformis, Fimbristylis, Portulaca oleracea, Xanthium sibiricum, Pharbitis nil) and major crop seeds (wheat, corn, rice, soybean, cotton, oilseed rape, millet, sorghum, potato, sesame, ricinus) were placed in plastic pots filled with soil, then covered with 0.5-2 cm of soil, allowed to grow in a good greenhouse environment. After 2 weeks of sowing, the test plants were treated in the 2 leaf stage. The tested compounds of the present invention were respectively dissolved in acetone, then added with Tween 80 and 1.5 liter/ha of emulsifiable concentrate of methyl oleate as synergist, diluted with a certain amount of water to obtain a solution with a certain concentration, and sprayed with a spray tower onto the plants. After the application, the plants were cultured for 15 days in the greenhouse, and then the experimental results of the weeding were counted. The doses of the used compounds were 500, 250, 125, 60, 30, 15 g/ha, and the averages were obtained by repeating for three times.

[2] = system: Amaranthus retroflexus; experiment: Weeding effect in post-emergence stage; type: in vivo; details: 250 g/ha; 2 leaf stage; 15 days after application; fresh weight control rate
Excerpt: as §1, §2, §3

Row | Structure (SMILES) | weeding effect in post-emergence stage, activity level (growth control rate), Echinochloa crusgali [1] | weeding effect in post-emergence stage, activity level (growth control rate), Amaranthus retroflexus [2]
1 | Cc1nnc(NC(=O)c2ccc(C(F)(F)F)c([S+]([O-])[Si](C)(C)C)c2F)o1 (stereo not drawn) [Compound 206] | 5 (Level 5: growth control rate is above 85%) | 5 (Level 5: growth control rate is above 85%)
2 | C#CCN(C(=O)c1ccc(C(F)(F)F)c([S@+]([O-])CC)c1F)c1nnc(C)o1 [Compound 214] | 5 (Level 5: growth control rate is above 85%) | 5 (Level 5: growth control rate is above 85%)
3 | CC[S@@+]([O-])c1c(C(F)(F)F)ccc(C(=O)N(C(C)=O)c2nnc(C)o2)c1F [Compound 216] | 5 (Level 5: growth control rate is above 85%) | 5 (Level 5: growth control rate is above 85%)
4 | CC[S@@+]([O-])c1c(C(F)(F)F)ccc(C(=O)N(C(=O)c2cn(C)nc2C)c2nnc(C)o2)c1F [Compound 223] | 5 (Level 5: growth control rate is above 85%) | 5 (Level 5: growth control rate is above 85%)
5 | CC[S@@+]([O-])c1c(C(F)(F)F)ccc(C(=O)N(C(=O)OC)c2nnc(C)o2)c1F [Compound 231] | 5 (Level 5: growth control rate is above 85%) | 5 (Level 5: growth control rate is above 85%)
6 | COc1c(C(=O)Nc2nnc(C)o2)ccc(C(F)(F)F)c1[S@+]([O-])CCc1ccccc1 [Compound 318] | 5 (Level 5: growth control rate is above 85%) | 5 (Level 5: growth control rate is above 85%)
7 | COc1c(C(=O)Nc2nnc(C)o2)ccc(C(F)(F)F)c1[S@+]([O-])CCO[Si](C)(C)C(C)(C)C [Compound 349] | 5 (Level 5: growth control rate is above 85%) | 5 (Level 5: growth control rate is above 85%)
8 | COc1c(C(=O)Nc2nnc(C)o2)ccc(C(F)(F)F)c1[S@+]([O-])CC(C)=O [Compound 351] | 5 (Level 5: growth control rate is above 85%) | 5 (Level 5: growth control rate is above 85%)
9 | COC(=O)CC[S@@+]([O-])c1c(C(F)(F)F)ccc(C(=O)Nc2nnc(C)o2)c1OC [Compound 354] | 5 (Level 5: growth control rate is above 85%) | 5 (Level 5: growth control rate is above 85%)
10 | COc1c(C(=O)Nc2nnc(C)o2)ccc(C(F)(F)F)c1[S+]([O-])COC(=O)C(C)(C)C (stereo not drawn) [Compound 355] | 5 (Level 5: growth control rate is above 85%) | 5 (Level 5: growth control rate is above 85%)
11 | COc1c(C(=O)Nc2nnc(C)o2)ccc(C(F)(F)F)c1[S@+]([O-])Cc1cn(C)nc1C [Compound 356] | 5 (Level 5: growth control rate is above 85%) | 5 (Level 5: growth control rate is above 85%)
12 | CCCn1nnnc1NC(=O)c1ccc(C(F)(F)F)c([S@+]([O-])CCC)c1F [Compound 383] | 5 (Level 5: growth control rate is above 85%) | 5 (Level 5: growth control rate is above 85%)
13 | CC[S@@+]([O-])c1c(C(F)(F)F)ccc(C(=O)Nc2nnc(C(C)C)o2)c1OC [Compound 425] | 5 (Level 5: growth control rate is above 85%) | 5 (Level 5: growth control rate is above 85%)
14 | CC[S@@+]([O-])c1c(C(F)(F)F)ccc(C(=O)Nc2nnc(C3CC3)o2)c1OC [Compound 428] | 5 (Level 5: growth control rate is above 85%) | 5 (Level 5: growth control rate is above 85%)
15 | CCCCn1nnnc1NC(=O)c1ccc(C(F)(F)F)c([S@+]([O-])CC)c1OC [Compound 448] | 5 (Level 5: growth control rate is above 85%) | 5 (Level 5: growth control rate is above 85%)
16 | CC[S@@+]([O-])c1c(C(F)(F)F)ccc(C(=O)Nc2ccon2)c1OC [Compound 457] | 5 (Level 5: growth control rate is above 85%) | 5 (Level 5: growth control rate is above 85%)
17 | CC[S@@+]([O-])c1c(C(F)(F)F)ccc(C(=O)Nc2nocc2C)c1OC [Compound 458] | 5 (Level 5: growth control rate is above 85%) | 5 (Level 5: growth control rate is above 85%)
18 | CC[S@@+]([O-])c1c(C(F)(F)F)ccc(C(=O)Nc2ncnn2C)c1OC [Compound 471] | 5 (Level 5: growth control rate is above 85%) | 5 (Level 5: growth control rate is above 85%)
19 | Cc1ccc(C(=O)Nc2nnnn2C)c(C)c1[S@+]([O-])C(C)C [Compound 476] | 5 (Level 5: growth control rate is above 85%) | 5 (Level 5: growth control rate is above 85%)
20 | Cc1ccc(C(=O)Nc2nnnn2C)c(C)c1[S@+]([O-])CC(C)C [Compound 477] | 5 (Level 5: growth control rate is above 85%) | 5 (Level 5: growth control rate is above 85%)
21 | Cc1ccc(C(=O)Nc2nnnn2C)c(C)c1[S@+]([O-])CC(F)(F)F [Compound 478] | 5 (Level 5: growth control rate is above 85%) | 5 (Level 5: growth control rate is above 85%)
22 | CC[S@@+]([O-])c1c(C)ccc(C(=O)Nc2nnc(C)o2)c1C [Compound 481] | 5 (Level 5: growth control rate is above 85%) | 5 (Level 5: growth control rate is above 85%)
23 | CCC[S@@+]([O-])c1c(C)ccc(C(=O)Nc2nnc(C)o2)c1C [Compound 482] | 5 (Level 5: growth control rate is above 85%) | 5 (Level 5: growth control rate is above 85%)
24 | Cc1nnc(NC(=O)c2ccc(C)c([S@+]([O-])C(C)C)c2C)o1 [Compound 483] | 5 (Level 5: growth control rate is above 85%) | 5 (Level 5: growth control rate is above 85%)
